From patent publication US20070042970A1, “Folate-modified cholesterol-bearing pullulan as a drug carrier” (priority 2005, published 2007) come the findings set out here.

One series has as its system TIG-1-20 cells. Kind of series: Cell counting experiment (trypan blue, hematocytometer). It counts as cell-based. Particulars: 0.2 mg/L DOX; at least for 2 days; folate-depleted DMEM. As for the experimental part:
Cells of either KB or TIG-1-20 were plated in 6 well cultivation plates and preincubated for 2-3 days, and each cultivation medium was replaced with new one (1.98 ml) just before the addition of anticancer reagents (0.02 ml). At the time of the addition, cell densities were about 5×10^4/ml for TIG-1-20, and about 15×10^4/ml for KB (each ca. 20-25% of their confluent states). The additives mainly used were; Control 1: PBS, Control 2 (FC): FA-CHP (1 mg)-CHP (4 mg) complex solution in 1 ml PBS, DOX 1: 0.02 mg doxorubicin/ml-PBS, DOX 2: 0.03 mg doxorubicin/ml-PBS, FA-CHP-CHP-DOX 1 (FCD 1): FA-CHP (1 mg)-CHP (4 mg)-DOX (0.02 mg) in 1 ml PBS, FA-CHP-CHP-DOX 2 (FCD 2): FA-CHP (1 mg)-CHP (4 mg)-DOX (0.03 mg) in 1 ml PBS. Drug mixtures with other composition were also tested essentially by the same procedure.
The culture medium was removed to 15 ml centrifugation tube, and cells remained attached to the dish were removed with Sigma cell dissociation solution (non-enzymatic, in PBS) in the case of KB, and with 0.05% trypsin and 0.02% EDTA solution in the case of TIG-1-20. […] After mixing with pipetting, all cells were counted on improved Neubauer hematocytometer. Detached cells were also counted by the same procedure after adjusting the removed medium to 2 ml.

The format of series [1] is physicochemical. As for the experimental part: For example, 5.0 mg of FA-CHP can simply complex with 0.01 mg of DOX. Complexes of DOX with a mixture of FA-CHP and CHP are denoted as FA-CHP-CHP-DOX hereafter.

For `COc1cccc2c1C(=O)c1c(O)c3c(c(O)c1C2=O)C[C@@](O)(C(=O)CO)C[C@@H]3O[C@H]1C[C@H](N)[C@H](O)[C@H](C)O1` [DOX, Doxorubicin], in the series with TIG-1-20 cells, the “TIG-1-20 cell death / proliferation (cell number counting)” value is on record as “completely killed cell proliferation”. Consider “folate modified cholesterol-bearing pullulan [FA-CHP]”, for which the “solubility in PBS” value in series [1] is on record as “easily soluble”.
